The source of these data is patent US20170232043A1, “BACTERIA ENGINEERED TO TREAT DISORDERS INVOLVING THE CATABOLISM OF A BRANCHED CHAIN AMINO ACID” (priority 2015, published 2017).

The subject of data set [1] is Pma: amino acid deaminase gene from P. mirabilis. Particulars: relative within the enzyme; cited from earlier work.
For data set [2], the system named is Pm1: amino acid deaminase gene from P. mirabilis KCTC 2566. Particulars: relative within the enzyme; cited from earlier work.
Data set [3] concerns LAD: L-amino acid deaminase of P. vulgaris. Conditions: relative within the enzyme; cited from earlier work.
A further data set concerns the target LivK (Escherichia coli, UniProt P04816). Particulars: cited from earlier work.
In data set [4] the test system is nitric oxide inducible PnsrR-GFP reporter construct. Nature of the data set: Nitric oxide inducible PnsrR-GFP reporter construct, fluorescence in plate reader (Example 28). In kind it is cell-based, E. coli Nissle. Conditions: DETA-NO as NO donor, two-fold decreased inducer, across a range of concentrations.
The subject of data set [5] is ATC-inducible Ptet-GFP reporter construct. Nature of the data set: ATC-inducible Ptet-GFP reporter construct, fluorescence in plate reader (Example 28). It counts as cell-based, E. coli Nissle. Particulars: two-fold decreased inducer, across a range of concentrations.
A further data set relates to rat. Conditions: cited from earlier work.
For a further data set, the system named is leucine. Nature of the data set: in vitro leucine degradation assay (leucine in culture medium by LC-MS/MS). In kind it is cell-based, E. coli Nissle.

Chain of LivK (P04816 24-369): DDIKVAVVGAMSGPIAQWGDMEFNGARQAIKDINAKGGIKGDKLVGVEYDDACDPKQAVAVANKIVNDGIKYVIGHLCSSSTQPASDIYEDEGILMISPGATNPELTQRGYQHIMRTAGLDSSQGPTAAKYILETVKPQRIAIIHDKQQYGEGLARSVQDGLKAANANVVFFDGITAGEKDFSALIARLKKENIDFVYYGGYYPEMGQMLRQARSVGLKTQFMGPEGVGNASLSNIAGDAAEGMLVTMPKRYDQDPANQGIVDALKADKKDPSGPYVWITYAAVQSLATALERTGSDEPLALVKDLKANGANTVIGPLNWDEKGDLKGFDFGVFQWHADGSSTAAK

As to `N[C@@H](Cc1ccccc1)C(=O)O` [Phe], the “amino acid deaminase activity of Pma, percentage” value in data set [1] is recorded as 100%. Moreover, the “amino acid deaminase activity of Pm1, percentage” value in data set [2] is listed as 46.2%. In data set [3], the “amino acid deaminase activity of LAD, percentage” value was 37.4%.

For `N[C@@H](Cc1c[nH]c2ccccc12)C(=O)O` [Trp], in data set [1], the “amino acid deaminase activity of Pma, percentage” value is on record as 3.2%. Besides, in data set [2], the “amino acid deaminase activity of Pm1, percentage” value is recorded as 10.2%. Moreover, the “amino acid deaminase activity of LAD, percentage” value in data set [3] is 41.6%.

For the molecule `N[C@@H](CC(=O)O)C(=O)O` [Asp], the “amino acid deaminase activity of Pma, percentage” value in data set [1] is listed as 10.9%. The “amino acid deaminase activity of Pm1, percentage” value in data set [2] was 2.6%. The “amino acid deaminase activity of LAD, percentage” value in data set [3] is on record as 55.4%.

On to `C[C@H](N)C(=O)O` [Ala], for which the “amino acid deaminase activity of Pma, percentage” value in data set [1] was 0.6%. The “amino acid deaminase activity of Pm1, percentage” value in data set [2] is 9%. Moreover, the “amino acid deaminase activity of LAD, percentage” value in data set [3] was 3.5%.

For orientation: Kd means the equilibrium constant for the complex coming apart. For `CC(C)C[C@H](N)C(=O)O` [Leu, leucine], in data set [1], the “amino acid deaminase activity of Pma, percentage” value is 41.7%. Also, in data set [2], the “amino acid deaminase activity of Pm1, percentage” value is on record as 7.6%. Moreover, the Kd at LivK was ~1000 nM. Further, the “amino acid deaminase activity of LAD, percentage” value in data set [3] is reported as 105%.

`CSCC[C@H](N)C(=O)O` [Met]: in data set [1], the “amino acid deaminase activity of Pma, percentage” value is recorded as 16.7%. Moreover, the “amino acid deaminase activity of Pm1, percentage” value in data set [2] was 2.6%. In data set [3], the “amino acid deaminase activity of LAD, percentage” value is given as 100%.

Take `NCC(=O)O` [Gly]: the “amino acid deaminase activity of Pma, percentage” value in data set [1] is on record as 1.3%. The “amino acid deaminase activity of Pm1, percentage” value in data set [2] is recorded as 7.6%.

Take `CC[C@H](C)[C@H](N)C(=O)O` [Ilu, isoleucine]: in data set [1], the “amino acid deaminase activity of Pma, percentage” value was 2.6%. In data set [2], the “amino acid deaminase activity of Pm1, percentage” value was 6.4%.

Turning to `NC(=O)C[C@H](N)C(=O)O` [Asn], the “amino acid deaminase activity of Pma, percentage” value in data set [1] is recorded as 0%. Besides, in data set [2], the “amino acid deaminase activity of Pm1, percentage” value was 5.2%. Also, the “amino acid deaminase activity of LAD, percentage” value in data set [3] was 43.6%.

As for `N[C@@H](Cc1ccc(O)cc1)C(=O)O` [Tyr], the “amino acid deaminase activity of Pma, percentage” value in data set [1] was 0.6%. The “amino acid deaminase activity of Pm1, percentage” value in data set [2] is on record as 9%. In addition, the “amino acid deaminase activity of LAD, percentage” value in data set [3] is recorded as 92.8%.

On to `NC(=O)CC[C@H](N)C(=O)O` [Gln], for which, in data set [1], the “amino acid deaminase activity of Pma, percentage” value is 1.3%. In data set [2], the “amino acid deaminase activity of Pm1, percentage” value is on record as 5.2%. Besides, the “amino acid deaminase activity of LAD, percentage” value in data set [3] was 1.1%.

As to `NCCN(CCN)[N+]([O-])=NO` [NO], the “expression of GFP (relative florescence units)” value in data set [4] was “able to induce the expression of GFP”.

`C[C@@H](O)[C@H](N)C(=O)O` [Thr]: in data set [1], the “amino acid deaminase activity of Pma, percentage” value is given as 0%. In addition, the “amino acid deaminase activity of Pm1, percentage” value in data set [2] is listed as 12.8%. Besides, the “amino acid deaminase activity of LAD, percentage” value in data set [3] was 1.1%.

As to `N[C@@H](CO)C(=O)O` [Ser], the “amino acid deaminase activity of Pma, percentage” value in data set [1] is 1.3%. In addition, in data set [2], the “amino acid deaminase activity of Pm1, percentage” value is 3.8%.

`O=C(O)[C@@H]1CCCN1` [Pro]: the “amino acid deaminase activity of Pma, percentage” value in data set [1] is 3.2%. In addition, the “amino acid deaminase activity of Pm1, percentage” value in data set [2] is 14.2%. Moreover, in data set [3], the “amino acid deaminase activity of LAD, percentage” value is recorded as 0.7%.

With `N[C@@H](Cc1c[nH]cn1)C(=O)O` [His], the “amino acid deaminase activity of Pma, percentage” value in data set [1] is 0%. The “amino acid deaminase activity of Pm1, percentage” value in data set [2] is reported as 100%. Also, the “amino acid deaminase activity of LAD, percentage” value in data set [3] is listed as 79.9%.

Turning to `N[C@@H](CS)C(=O)O` [Cys], the “amino acid deaminase activity of Pma, percentage” value in data set [1] is on record as 1.9%. For the same molecule, in data set [2], the “amino acid deaminase activity of Pm1, percentage” value is given as 9%.

For the molecule `Cc1c2c(c(O)c3c(O)cccc13)C(=O)[C@]1(O)C(=O)C(C(N)=O)=C(O)[C@@H](N(C)C)[C@@H]1C2` [ATC, anhydrotetracycline], the “expression of GFP (relative florescence units)” value in data set [5] is reported as “able to induce the expression of GFP”.

Regarding `NCCCC[C@H](N)C(=O)O` [Lys], in data set [1], the “amino acid deaminase activity of Pma, percentage” value is recorded as 1.9%. For the same molecule, in data set [2], the “amino acid deaminase activity of Pm1, percentage” value is listed as 7.6%. The “amino acid deaminase activity of LAD, percentage” value in data set [3] is on record as 3.5%.

For `CC(C)CCO` [Isopentanol], the “Oral LD50 (rat)” value in the data set on rat is listed as >5000 mg/kg.

On to `N[C@@H](CCC(=O)O)C(=O)O` [Glu], for which the “amino acid deaminase activity of Pma, percentage” value in data set [1] is on record as 0.6%. Further, the “amino acid deaminase activity of Pm1, percentage” value in data set [2] is given as 35.8%. Besides, in data set [3], the “amino acid deaminase activity of LAD, percentage” value was 1.1%.

On to `N=C(N)NCCC[C@H](N)C(=O)O` [Arg], for which the “amino acid deaminase activity of Pma, percentage” value in data set [1] is recorded as 28.2%. Further, the “amino acid deaminase activity of Pm1, percentage” value in data set [2] is reported as 51.2%. Further, in data set [3], the “amino acid deaminase activity of LAD, percentage” value is on record as 27.3%.

Take `CC(C)CO` [Isobutanol]: the “Oral NOAEL* (rat)” value in the data set on rat (No-Observed-Adverse-Effect) was >1450 mg/kg/day.

For `CC(C)[C@H](N)C(=O)O` [Val, valine], the “amino acid deaminase activity of Pma, percentage” value in data set [1] is on record as 1.3%. Besides, the “amino acid deaminase activity of Pm1, percentage” value in data set [2] is 6.4%.

B1: BrnQ: low affinity BCAA transporter (protein)
chain: MTHQLRSRDIIALGFMTFALFVGAGNIIFPPMVGLQAGEHVWTAAFGFLITAVGLPVLTVVALAKVGGGVDSLSTPIGKVAGVLLATVCYLAVGPLFATPRTATVSFEVGIAPLTGDSALPLFIYSLVYFAIVILVSLYPGKLLDTVGNFLAPLKIIALVILSVAAIIWPAGSISTATEAYQNAAFSNGFVNGYLTMDTLGAMVFGIVIVNAARSRGVTEARLLTRYTVWAGLMAGVGLTLLYLALFRLGSDSASLVDQSANGAAILHAYVQHTFGGGGSFLLAALIFIACLVTAVGLTCACAEFFAQYVPLSYRTLVFILGGFSMVVSNLGLSQLIQISVPVLTAIYPPCIALVVLSFTRSWWHNSSRVIAPPMFISLLFGILDGIKASAFSDILPSWAQRLPLAEQGLAWLMPTVVMVVLAIIWDRAAGRQVTSSAH
modifications: BCAA transporter BrnQ
Regarding B1, the “rate of leucine degradation with overexpression of BrnQ” value with leucine (LeuE and ilvC knockout strain with leuDH-kivD-padA on high copy plasmid, tet inducible brnQ on low copy plasmid) is “greatly improves the rate of leucine degradation”.

B2: LAADPm: L-AAD derived from P. mirabilis (protein)
chain: MAISRRKFILGGTVVAVAAGAGVLTPMLTREGRFVPGTPRHGFVEGTGGPLPKQDDVVVIGAGILGIMTAINLAERGLSVTIVEKGNIAGEQSSRFYGQAISYKMPDETFLLHHLGKHRWREMNAKVGIDTTYRTQGRVEVPLDEEDLENVRKWIDAKSKDVGSDIPFRTKMIEGAELKQRLRGATTDWKIAGFEEDSGSFDPEVATFVMAEYAKKMGIKIFTNCAARGLETQAGVISDVVTEKGPIKTSRVVVAGGVGSRLFMQNLNVDVPTLPAYQSQQLISAAPNAPGGNVALPGGIFFRDQADGTYATSPRVIVAPVVKESFTYGYKYLPLLALPDFPVHISLNEQLINSFMQSTHWDLNEESPFEKYRDMTALPDLPELNASLEKLKKEFPAFKESTLIDQWSGAMAIAPDENPIISDVKEYPGLVINTATGWGMTESPVSAEITADLLLGKKPVLDAKPFSLYRF
modifications: Synthetic: L-AAD Nucleotide sequence
notes: L-AAD derived from P. mirabilis
For the molecule B2, the “leucine degradation rate, comparison of adh2, yqhD, padA and of LAADPv, LAADPm” value with leucine (SYN469 background, with L-AAD and kivD) is reported as “good alternative to LAADPV”.

B3: LeuDH: leucine dehydrogenase from Pseudomonas aeruginosa, expressed in the engineered strain (protein)
chain: MFDMMDAARLEGLHLAQDPATGLKAIIAIHSTRLGPALGGCRYLPYPNDEAAIGDAIRLAQGMSYKAALAGLEQGGGKAVIIRPPHLDNRGALFEAFGRFIESLGGRYITAVDSGTSSADMDCIAQQTRHVTSTTQAGDPSPHTALGVFAGIRASAQARLGSDDLEGLRVAVQGLGHVGYALAEQLAAVGAELLVCDLDPGRVQLAVEQLGAHPLAPEALLSTPCDILAPCGLGGVLTSQSVSQLRCAAVAGAANNQLERPEVADELEARGILYAPDYVINSGGLIYVALKHRGADPHSITAHLARIPARLTEIYAHAQADHQSPARIADRLAERILYGPQ
modifications: Synthetic: leuDH codon-optimized nucleotide sequence
notes: leucine dehydrogenase from Pseudomonas aeruginosa, expressed in the engineered strain
Consider B3, for which the “rate of leucine degradation” value in the data set on leucine (background strain Nissle ΔleuE, lacZ:tet-livKHMGF) is “about 160 nmol/10^9 CFU/hour”.
